This is an account of results in patent US9181234B2, “Antibacterial compounds” (priority 2010, dated 2015).

In data set [1] the test system is Streptococcus pyogenes (Isolate ID ATCC 51339). Description: Antibacterial activity, MIC, S. pyogenes. In kind it is cell-based. Conditions: Streptococcus pyogenes, ATCC51339, Gram positive strain; broth microdilution or agar dilution. The gist of the method: (§1)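 Readout is the MIC, established according to CLSI standard M7-A7 using either agar dilution or broth microdilution.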

The test system of data set [2] is Enterococcus faecalis (Isolate ID ATCC 29212). Description: Antibacterial activity, MIC, E. faecalis. It is filed as cell-based. The note with it: Enterococcus faecalis, ATCC29212; Gram positive strain; broth microdilution or agar dilution. On the procedure: Bacterial Assay: Determination of Antibacterial Activity
Compounds of the invention were tested for antimicrobial activity by susceptibility testing in liquid or on solid media. MICs for compounds against each strain were determined by the broth microdilution or agar dilution method according to the guidelines of the Clinical Laboratories and Standards Institute, formerly the National Committee for Clinical Laboratory Standards (Clinical Laboratories and Standards Institute. Methods for Dilution Antimicrobial Susceptibility Tests for Bacteria That Grow Aerobically; Approved Standard—Seventh Edition. Document M7-A7. CLSI, Wayne, Pa., 2006; Clinical Laboratories and Standards Institute. The gram positive bacterial strains tested include S. aureus (Staphylococcus aureus (Isolate ID ATCC 29213)), E. faecalis (Enterococcus faecalis (Isolate ID ATCC 29212)) and S. pyogenes (Streptococcus pyogenes (Isolate ID ATCC 51339)). The gram negative bacterial strains tested include H. influenzae (Haemophilus influenzae (Isolate ID ATCC 49247))
Background: Dilution methods test growth across graded concentrations, often in twofold steps.

Data set [3] deals with Staphylococcus aureus (Isolate ID ATCC 29213). Put plainly: Antibacterial activity, MIC, S. aureus. In kind it is cell-based. The note with it: Staphylococcus aureus, ATCC29213, Gram positive strain; broth microdilution or agar dilution. The gist of the method: as §1
Data set [4] in a line: physchem. The note with it: kinetic from dmso stock. The gist of the method:
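DMSO doubling dilutions were diluted twenty-fold into 100 mM citrate (pH 4), PBS (pH 7.4) or carbonate-bicarbonate (pH 9). After 24 h equilibration at room temperature, absorbance was read at 620 nm. The reported value is the highest concentration without measurable precipitate.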

Data set [5] relates to Haemophilus influenzae (Isolate ID ATCC 49247). Put plainly: Antibacterial activity, MIC, H. influenzae. In kind it is cell-based. The note with it: Haemophilus influenzae, ATCC49247; Gram negative strain; broth microdilution or agar dilution. An outline of the steps: as §1
[6] abbreviates: pH 7.4, aqueous buffer, Solubility (pH 7.4).
The mark [7] stands for this setting: pH 7.4, aqueous buffer, Solubility Range.
Where [8] appears, read: pH 9, aqueous buffer, Max Solubility.
The mark [9] stands for this setting: pH 9, aqueous buffer, Solubility Range (maximum solubility).
[10] abbreviates: pH 7.4, aqueous buffer, Max Solubility.
Setting [11] is: pH 7.4, aqueous buffer, Solubility Range (maximum solubility).

Values after ≈ are worked out from the molar mass of the structure shown. Some results are limits rather than exact numbers.

On to `CCNC(=O)Nc1nc2cc(-c3cnc(N4CCC(C)(C(=O)O)CC4)nc3)cc(-c3ccnc(C)n3)c2s1` [Compound 43], for which the MIC was no more than 0.25 µg/mL in data set [1], no more than 0.25 µg/mL in data set [2], no more than 0.25 µg/mL in data set [3] and 0.25 to 1 µg/mL (≈ 0.469 to 1.88 µM) in data set [5]. Moreover, the solubility at 24 h was 400 µg/mL (≈ 751 µM) in data set [4] (setting [6]), 400 to 800 µg/mL (≈ 751 to 1500 µM) in data set [4] (setting [7]), no less than 800 µg/mL in data set [4] (setting [8]) and greater than 800 µg/mL in data set [4] (setting [9]).

Turning to `CCNC(=O)Nc1nc2cc(-c3cnc(N4CCC(C)(C(=O)O)CC4)nc3)cc(-c3ccnc(C#N)n3)c2s1` [Compound 44], the MIC in data set [1] was no more than 0.25 µg/mL; in data set [2] it was no more than 0.25 µg/mL; in data set [3], 1 to 16 µg/mL (≈ 1.84 to 29.4 µM); in data set [5], greater than 16 µg/mL. Further, the solubility at 24 h in data set [4] (setting [10]) was no less than 800 µg/mL; in data set [4] (setting [6]) it was no less than 800 µg/mL; in data set [4] (setting [7]), greater than 800 µg/mL; in data set [4] (setting [11]), greater than 800 µg/mL.

Regarding `CCNC(=O)Nc1nc2cc(-c3cnc(N4CCC(C)(C(=O)O)CC4)nc3)cc(-c3cc(C)ncn3)c2s1` [Compound 45], the MIC was no more than 0.25 µg/mL in data set [1], no more than 0.25 µg/mL in data set [2], no more than 0.25 µg/mL in data set [3] and 0.25 to 1 µg/mL (≈ 0.469 to 1.88 µM) in data set [5]. The solubility at 24 h in data set [4] (setting [10]) was no less than 800 µg/mL; in data set [4] (setting [6]), no less than 800 µg/mL; in data set [4] (setting [7]) it was greater than 800 µg/mL; in data set [4] (setting [11]), greater than 800 µg/mL.

Turning to `CCNC(=O)Nc1nc2cc(-c3cnc(N4CCC(C)(C(=O)O)CC4)nc3)ccc2s1` [Compound 46, 1-{5-[2-(3-Ethyl-ureido)-benzothiazol-5-yl]-pyrimidin-2-yl}-4-methyl-piperidine-4-carboxylic acid], the MIC is 1 to 16 µg/mL (≈ 2.27 to 36.3 µM) in data set [1], 0.25 to 1 µg/mL (≈ 0.567 to 2.27 µM) in data set [2], 1 to 16 µg/mL (≈ 2.27 to 36.3 µM) in data set [3] and greater than 16 µg/mL in data set [5]. In addition, the solubility at 24 h is 100 µg/mL (≈ 227 µM) in data set [4] (setting [6]), 12.5 to 400 µg/mL (≈ 28.4 to 908 µM) in data set [4] (setting [7]), 400 µg/mL (≈ 908 µM) in data set [4] (setting [8]) and 400 to 800 µg/mL (≈ 908 to 1820 µM) in data set [4] (setting [9]).

For the compound `CCNC(=O)Nc1nc2cc(-c3cnc(N4CCC(C)(C(=O)O)CC4)nc3)cc(C3CCOCC3)c2s1` [Compound 47, 1-[5-[2-(ethylcarbamoylamino)-7-tetrahydropyran-4-yl-1,3-benzothiazol-5-yl]pyrimidin-2-yl]-4-methyl-piperidine-4-carboxylic acid], the MIC in data set [1] was 1 to 16 µg/mL (≈ 1.91 to 30.5 µM); in data set [2] it was 0.25 to 1 µg/mL (≈ 0.477 to 1.91 µM); in data set [3], 1 to 16 µg/mL (≈ 1.91 to 30.5 µM); in data set [5] it was greater than 16 µg/mL. The solubility at 24 h is no less than 800 µg/mL in data set [4] (setting [10]), no less than 800 µg/mL in data set [4] (setting [6]), greater than 800 µg/mL in data set [4] (setting [7]) and greater than 800 µg/mL in data set [4] (setting [11]).

Take `CCNC(=O)Nc1nc2cc(-c3cnc(N4CCC(C)(C(=O)O)CC4)nc3)cc(-c3cc(OC(C)C)ncn3)c2s1` [Compound 48]: the MIC is no more than 0.25 µg/mL in data set [1], no more than 0.25 µg/mL in data set [2], no more than 0.25 µg/mL in data set [3] and 1 to 16 µg/mL (≈ 1.73 to 27.7 µM) in data set [5]. In addition, the solubility at 24 h in data set [4] (setting [6]) was 400 µg/mL (≈ 694 µM); in data set [4] (setting [7]), 400 to 800 µg/mL (≈ 694 to 1390 µM); in data set [4] (setting [8]), no less than 800 µg/mL; in data set [4] (setting [9]) it was greater than 800 µg/mL.

As for `CCNC(=O)Nc1nc2cc(-c3cnc(N4CCC(C)(C(=O)O)CC4)nc3)cc(-c3cc(OCCOC)nc(C)n3)c2s1` [Compound 49], the MIC in data set [1] was no more than 0.25 µg/mL; in data set [2], no more than 0.25 µg/mL; in data set [3], no more than 0.25 µg/mL; in data set [5], 1 to 16 µg/mL (≈ 1.65 to 26.4 µM). In addition, the solubility at 24 h in data set [4] (setting [10]) was no less than 800 µg/mL; in data set [4] (setting [6]), no less than 800 µg/mL; in data set [4] (setting [7]) it was greater than 800 µg/mL; in data set [4] (setting [11]), greater than 800 µg/mL.

Regarding `CCNC(=O)Nc1nc2cc(-c3cnc(N4CCC(C)(C(=O)O)CC4)nc3)cc(-c3cn(C)nn3)c2s1` [Compound 50, 1-[5-[2-(ethylcarbamoylamino)-7-(1-methyltriazol-4-yl)-1,3-benzothiazol-5-yl]pyrimidin-2-yl]-4-methyl-piperidine-4-carboxylic acid], the MIC in data set [1] was 0.25 to 1 µg/mL (≈ 0.479 to 1.92 µM); in data set [2], 0.25 to 1 µg/mL (≈ 0.479 to 1.92 µM); in data set [3] it was greater than 16 µg/mL; in data set [5], 1 to 16 µg/mL (≈ 1.92 to 30.7 µM). In addition, the solubility at 24 h in data set [4] (setting [10]) is no less than 800 µg/mL; in data set [4] (setting [6]), no less than 800 µg/mL; in data set [4] (setting [7]), greater than 800 µg/mL; in data set [4] (setting [11]) it was greater than 800 µg/mL.

With `CCNC(=O)Nc1nc2cc(-c3cnc(N4CCC(C)(C(=O)O)CC4)nc3)cc(-c3ncc(OC)cn3)c2s1` [Compound 51], the MIC in data set [1] is no more than 0.25 µg/mL; in data set [2] it was no more than 0.25 µg/mL; in data set [3], no more than 0.25 µg/mL; in data set [5], 0.25 to 1 µg/mL (≈ 0.456 to 1.82 µM). The solubility at 24 h in data set [4] (setting [10]) is no less than 800 µg/mL; in data set [4] (setting [6]), no less than 800 µg/mL; in data set [4] (setting [7]), greater than 800 µg/mL; in data set [4] (setting [11]) it was greater than 800 µg/mL.

By solubility is commonly meant the dissolved amount per volume that the medium holds.
